Entries after “also recorded” stand apart in the source; their conditions may differ.
Experiment: Adverse events (CTCAEv3.0), worst grade per patient regardless of relation, and laboratory parameters
Type: in vivo
Protocol: Toxicity was evaluated according to common toxicity criteria for adverse events (CTCAEv3.0). The MTD was defined as the dose level(s) at which at least two out of six patients developed DLT.
Toxicity assessment, haematology and clinical biochemistry were performed at baseline and weekly during the study. Physical and ECOG performance status were recorded at baseline and before the next cycle.

What does the source list for `CC(C)C[C@@H](C(=O)N[C@H](C(=O)OC1CCCC1)c1ccccc1)[C@H](O)C(=O)NO` [tosedostat]?
Dyspnoea, CTCAE grade 1, patients (human, in vivo, 21 days): 0; Eosinophilic myocarditis, CTCAE grade 1, patients (human, in vivo, 21 days): 0; Eosinophilic myocarditis, CTCAE grade 2, patients (human, in vivo, 21 days): 0; Eosinophilic myocarditis, CTCAE grade 3, patients (human, in vivo, 21 days): 0; Eosinophilic myocarditis, CTCAE grade 4, patients (human, in vivo, 21 days): 0; Eosinophilic myocarditis, patients with events, % (human, in vivo, 21 days): 0%; Erythema, CTCAE grade 1, patients (human, in vivo, 21 days): 0; Erythema, CTCAE grade 2, patients (human, in vivo, 21 days): 0; Erythema, CTCAE grade 3, patients (human, in vivo, 21 days): 0; Erythema, CTCAE grade 4, patients (human, in vivo, 21 days): 0; Erythema, patients with events, % (human, in vivo, 21 days): 0%; Fatigue, CTCAE grade 1, patients (human, in vivo, 21 days): 7; Fatigue, CTCAE grade 2, patients (human, in vivo, 21 days): 2; Fatigue, CTCAE grade 3, patients (human, in vivo, 21 days): 1; Fatigue, CTCAE grade 4, patients (human, in vivo, 21 days): 0; Fatigue, patients with events, % (human, in vivo, 21 days): 45%; Gastric dilatation, CTCAE grade 1, patients (human, in vivo, 21 days): 0; Gastric dilatation, CTCAE grade 2, patients (human, in vivo, 21 days): 0; Gastric dilatation, CTCAE grade 3, patients (human, in vivo, 21 days): 1; Gastric dilatation, CTCAE grade 4, patients (human, in vivo, 21 days): 0; Gastric dilatation, patients with events, % (human, in vivo, 21 days): 5%; General physical health deterioration, CTCAE grade 1, patients (human, in vivo, 21 days): 0; General physical health deterioration, CTCAE grade 2, patients (human, in vivo, 21 days): 0; General physical health deterioration, CTCAE grade 3, patients (human, in vivo, 21 days): 0; General physical health deterioration, CTCAE grade 4, patients (human, in vivo, 21 days): 0; General physical health deterioration, patients with events, % (human, in vivo, 21 days): 0%; Hypercalcaemia, CTCAE grade 1, patients (human, in vivo, 21 days): 0; Hypercalcaemia, CTCAE grade 2, patients (human, in vivo, 21 days): 0; Hypercalcaemia, CTCAE grade 3, patients (human, in vivo, 21 days): 0; Hypercalcaemia, CTCAE grade 4, patients (human, in vivo, 21 days): 0; Hypercalcaemia, patients with events, % (human, in vivo, 21 days): 0%; Hyperglycaemia, CTCAE grade 1, patients (human, in vivo, 21 days): 0; Hyperglycaemia, CTCAE grade 2, patients (human, in vivo, 21 days): 0; Hyperglycaemia, CTCAE grade 3, patients (human, in vivo, 21 days): 2; Hyperglycaemia, CTCAE grade 4, patients (human, in vivo, 21 days): 0; Hyperglycaemia, patients with events, % (human, in vivo, 21 days): 9%; Hyperhidrosis, CTCAE grade 1, patients (human, in vivo, 21 days): 1; Hyperhidrosis, CTCAE grade 2, patients (human, in vivo, 21 days): 0; Hyperhidrosis, CTCAE grade 3, patients (human, in vivo, 21 days): 0; Hyperhidrosis, CTCAE grade 4, patients (human, in vivo, 21 days): 0; Hyperhidrosis, patients with events, % (human, in vivo, 21 days): 5%; Leukopenia, CTCAE grade 1, patients (human, in vivo, 21 days): 0; Leukopenia, CTCAE grade 2, patients (human, in vivo, 21 days): 2; Leukopenia, CTCAE grade 3, patients (human, in vivo, 21 days): 2; Leukopenia, CTCAE grade 4, patients (human, in vivo, 21 days): 0; Leukopenia, patients with events, % (human, in vivo, 21 days): 18%; Malaise, CTCAE grade 2, patients (human, in vivo, 21 days): 0; Malaise, CTCAE grade 3, patients (human, in vivo, 21 days): 1; Malaise, CTCAE grade 4, patients (human, in vivo, 21 days): 0; Malaise, patients with events, % (human, in vivo, 21 days): 5%; Mucosal inflammation, CTCAE grade 1, patients (human, in vivo, 21 days): 2; Mucosal inflammation, CTCAE grade 2, patients (human, in vivo, 21 days): 1; Mucosal inflammation, CTCAE grade 3, patients (human, in vivo, 21 days): 0; Mucosal inflammation, CTCAE grade 4, patients (human, in vivo, 21 days): 0; Mucosal inflammation, patients with events, % (human, in vivo, 21 days): 14%; Myalgia, CTCAE grade 1, patients (human, in vivo, 21 days): 7; Myalgia, CTCAE grade 2, patients (human, in vivo, 21 days): 1; Myalgia, CTCAE grade 3, patients (human, in vivo, 21 days): 1; Myalgia, CTCAE grade 4, patients (human, in vivo, 21 days): 0; Myalgia, patients with events, % (human, in vivo, 21 days): 41%; Nasopharyngitis, CTCAE grade 1, patients (human, in vivo, 21 days): 2; Nasopharyngitis, CTCAE grade 2, patients (human, in vivo, 21 days): 0; Nasopharyngitis, CTCAE grade 3, patients (human, in vivo, 21 days): 0; Nasopharyngitis, CTCAE grade 4, patients (human, in vivo, 21 days): 0; Nasopharyngitis, patients with events, % (human, in vivo, 21 days): 9%; Nausea, CTCAE grade 1, patients (human, in vivo, 21 days): 4; Nausea, CTCAE grade 2, patients (human, in vivo, 21 days): 1; Nausea, CTCAE grade 3, patients (human, in vivo, 21 days): 0; Nausea, CTCAE grade 4, patients (human, in vivo, 21 days): 0; Nausea, patients with events, % (human, in vivo, 21 days): 23%; Neutropenia, CTCAE grade 1, patients (human, in vivo, 21 days): 0; Neutropenia, CTCAE grade 2, patients (human, in vivo, 21 days): 1; Neutropenia, CTCAE grade 3, patients (human, in vivo, 21 days): 2; Neutropenia, CTCAE grade 4, patients (human, in vivo, 21 days): 3; Neutropenia, patients with events, % (human, in vivo, 21 days): 27%; Oedema peripheral, CTCAE grade 1, patients (human, in vivo, 21 days): 4; Oedema peripheral, CTCAE grade 2, patients (human, in vivo, 21 days): 1; Oedema peripheral, CTCAE grade 3, patients (human, in vivo, 21 days): 0; Oedema peripheral, CTCAE grade 4, patients (human, in vivo, 21 days): 0; Oedema peripheral, patients with events, % (human, in vivo, 21 days): 23%; Oedema, CTCAE grade 1, patients (human, in vivo, 21 days): 3; Oedema, CTCAE grade 2, patients (human, in vivo, 21 days): 0; Oedema, CTCAE grade 3, patients (human, in vivo, 21 days): 0; Oedema, CTCAE grade 4, patients (human, in vivo, 21 days): 0; Oedema, patients with events, % (human, in vivo, 21 days): 14%; Peripheral sensory neuropathy, CTCAE grade 1, patients (human, in vivo, 21 days): 4; Peripheral sensory neuropathy, CTCAE grade 2, patients (human, in vivo, 21 days): 3; Peripheral sensory neuropathy, CTCAE grade 3, patients (human, in vivo, 21 days): 0; Peripheral sensory neuropathy, CTCAE grade 4, patients (human, in vivo, 21 days): 0; Peripheral sensory neuropathy, patients with events, % (human, in vivo, 21 days): 32%; Pollakiuria, CTCAE grade 1, patients (human, in vivo, 21 days): 0; Pollakiuria, CTCAE grade 2, patients (human, in vivo, 21 days): 0; Pollakiuria, CTCAE grade 3, patients (human, in vivo, 21 days): 0; Pollakiuria, CTCAE grade 4, patients (human, in vivo, 21 days): 0; Pollakiuria, patients with events, % (human, in vivo, 21 days): 0%; Pruritus, CTCAE grade 1, patients (human, in vivo, 21 days): 3; Pruritus, CTCAE grade 2, patients (human, in vivo, 21 days): 0; Pruritus, CTCAE grade 3, patients (human, in vivo, 21 days): 1; Pruritus, CTCAE grade 4, patients (human, in vivo, 21 days): 0; Pruritus, patients with events, % (human, in vivo, 21 days): 18%; Pyrexia, CTCAE grade 1, patients (human, in vivo, 21 days): 1; Pyrexia, CTCAE grade 2, patients (human, in vivo, 21 days): 1; Pyrexia, CTCAE grade 3, patients (human, in vivo, 21 days): 0; Pyrexia, CTCAE grade 4, patients (human, in vivo, 21 days): 0; Pyrexia, patients with events, % (human, in vivo, 21 days): 9%; Rash, CTCAE grade 1, patients (human, in vivo, 21 days): 3; Rash, CTCAE grade 2, patients (human, in vivo, 21 days): 1; Rash, CTCAE grade 3, patients (human, in vivo, 21 days): 1; Rash, CTCAE grade 4, patients (human, in vivo, 21 days): 0; Rash, patients with events, % (human, in vivo, 21 days): 23%; Spinal cord compression, CTCAE grade 1, patients (human, in vivo, 21 days): 0; Spinal cord compression, CTCAE grade 2, patients (human, in vivo, 21 days): 0; Spinal cord compression, CTCAE grade 3, patients (human, in vivo, 21 days): 0; Spinal cord compression, CTCAE grade 4, patients (human, in vivo, 21 days): 0; Spinal cord compression, patients with events, % (human, in vivo, 21 days): 0%; Tumour pain, CTCAE grade 1, patients (human, in vivo, 21 days): 0; Tumour pain, CTCAE grade 2, patients (human, in vivo, 21 days): 0; Tumour pain, CTCAE grade 3, patients (human, in vivo, 21 days): 1; Tumour pain, CTCAE grade 4, patients (human, in vivo, 21 days): 0; Tumour pain, patients with events, % (human, in vivo, 21 days): 5%; Urinary tract infection, CTCAE grade 1, patients (human, in vivo, 21 days): 0; Urinary tract infection, CTCAE grade 2, patients (human, in vivo, 21 days): 0; Urinary tract infection, CTCAE grade 3, patients (human, in vivo, 21 days): 1; Urinary tract infection, CTCAE grade 4, patients (human, in vivo, 21 days): 0; Urinary tract infection, patients with events, % (human, in vivo, 21 days): 5%; Vomiting, CTCAE grade 1, patients (human, in vivo, 21 days): 3; Vomiting, CTCAE grade 2, patients (human, in vivo, 21 days): 1; Vomiting, CTCAE grade 3, patients (human, in vivo, 21 days): 0; Vomiting, CTCAE grade 4, patients (human, in vivo, 21 days): 0; Vomiting, patients with events, % (human, in vivo, 21 days): 18%; γ-glutamyltransferase increased, CTCAE grade 1, patients (human, in vivo, 21 days): 0; γ-glutamyltransferase increased, CTCAE grade 2, patients (human, in vivo, 21 days): 0; γ-glutamyltransferase increased, CTCAE grade 3, patients (human, in vivo, 21 days): 1; γ-glutamyltransferase increased, CTCAE grade 4, patients (human, in vivo, 21 days): 0; γ-glutamyltransferase increased, patients with events, % (human, in vivo, 21 days): 5%; death on study, cause (one patient, cohort 5, 6 days after third paclitaxel infusion, 2 days after last tosedostat dose): eosinophilic myocarditis, possibly related to study medication; also recorded: eosinophilic myocarditis, considered possibly related to paclitaxel, tosedostat or other medications
